Where two headings read alike, the source gives them in different places.
Tested on: genetisch hypertonen Ratten
Assay: Antihypertensive effect in the spontaneously hypertensive rat, systolic blood pressure by tail cuff after oral dosing
Assay type: in vivo, Ratte
Details: male SHR/N/Ibm/Bm rats, N=6, mean of day 1 and 2; for change in vivo at 25 µmol/kg / change in vivo at 10 µmol/kg: Rattus norvegicus, po; for change in vivo at 25 µmol/kg / BP (% Änderung vs. Kontrolle), Mittelwert für Meßzeitpunkte: Stunden nach Gabe (1. und 2. Tag) 2h / BP (% Änderung vs. Kontrolle), Mittelwert für Meßzeitpunkte: Stunden nach Gabe (1. und 2. Tag) 6h: 25 µmol/kg p.o. once daily on two consecutive days; for change in vivo at 10 µmol/kg: 10 µmol/kg p.o. once daily on two consecutive days
Text: Die antihypertensive Wirksamkeit der erfindungsgemäßen Verbindungen kann am Modell der spontan hypertonen Ratte nachgewiesen werden.
Zur Bestimmung der antihypertensiven Wirkung werden die unten aufgeführten Verbindungen in den angegebenen Dosen an zwei aufeinander folgenden Tagen an je 6 männlichen Ratten (Stamm SHR/N/Ibm/Bm, 250-350 g) mit genetisch bedingtem Hochdruck (systolischer Blutdruck > 180 mmHg) täglich einmal mittels Schlundsonde verabfolgt. Die Messung des Blutdrucks erfolgt jeweils 2, 6 und 24 Stunden nach Substanzgabe.
Die Blutdruckmessung wird in einer Wärmekammer bei 36°C vorgenommen, um eine bessere Durchblutung der Schwanzarterie zu erreichen. Hierzu werden die Tiere in perforierte Lochblechkäfige verbracht und 20 - 40 Min. nach Beginn der Aufwärmung gemessen. Zur Messung des systolischen arteriellen Drucks wird eine ringförmige Manschette mit aufblasbarer Gummimembran zur Unterbindung der Durchblutung und ein ringförmiger Piezokristallaufnehmer zur Erfassung der Pulswellen auf den Schwanz aufgeschoben. Nach erfolgter Unterbindung des Blutstroms in der Schwanzarterie wird der Manschettendruck kontinuierlich reduziert. Die Wiederkehr der Pulswellen bei Druckablassen wird automatisch als systolischer Blutdruck erkannt und ausgedruckt (Bühler, R. et al.: Microprocessor-based automation of blood pressure measurement in the conscious rat. Proceedings of the 4th international symposium on rats with spontaneous hypertension and related studies, Rascher, R. et al. (Eds.), Schattauer Verlag, Stuttgart, New York, 1982, S. 410-413). Pulssignale und Druckverlauf werden zur Auswertung graphisch aufgezeichnet.
Zur Gewöhnung an den Meßvorgang werden die Tiere vor Substanzprüfung 14 Tage trainiert. In der zweiten Trainingswoche werden Blutdruck-Vorwerte erhoben. Tiergruppen, die Substanz erhalten, werden gegen eine Kontrollgruppe geprüft. In der anschließenden Tabelle werden die untersuchten Verbindungen durch laufende Nummern gekennzeichnet, die mit den jeweiligen Beispielnummern übereinstimmen. Bei getrennten Diastereomeren ist der Drehwert des untersuchten Diastereomers angegeben.
Tabelle I gibt für die Vertreter der erfindungsgemäßen Verbindungen die prozentuale Senkung des Blutdrucks (BP) nach oraler Verabreichung bei der Ratte wieder.
%-Änderungen (BP) an genetisch hypertonen Ratten nach täglich einmaliger p.o.-Applikation an zwei aufeinanderfolgenden Tagen (N=6/Dosis).

[1] = 2 h, 2h after dosing, read-out: BP (% Änderung vs. Kontrolle), Mittelwert für Meßzeitpunkte: Stunden nach Gabe (1. und 2. Tag) 2h
[2] = 6 h, 6h after dosing, read-out: BP (% Änderung vs. Kontrolle), Mittelwert für Meßzeitpunkte: Stunden nach Gabe (1. und 2. Tag) 6h
[3] = 24 h, 24h after dosing, read-out: BP (% Änderung vs. Kontrolle), Mittelwert für Meßzeitpunkte: Stunden nach Gabe (1. und 2. Tag) 24h

Row | SMILES | change in vivo at 25 µmol/kg [1] [%] | change in vivo at 25 µmol/kg [2] [%] | change in vivo at 25 µmol/kg [3] [%] | further results
1 | CN[C@H](C)[C@@H](OC(=O)C1=C(C)NC(C)=C(C(=O)OC)C1c1cccc([N+](=O)[O-])c1)c1ccccc1 (single isomer, unassigned) [7 (-88°)] | -56 | -46 | -11.5 | 
2 | CN[C@@H](C)[C@H](OC(=O)C1=C(C)NC(C)=C(C(=O)OC)C1c1cccc([N+](=O)[O-])c1)c1ccccc1 (single isomer, unassigned) [8 (+202,6°)] | -55 | -43 | -10.5 | 
3 | CN[C@@H](C)[C@@H](OC(=O)C1=C(C)NC(C)=C(C(=O)OC)C1c1cccc([N+](=O)[O-])c1)c1ccccc1 (single isomer, unassigned) [9 (-66,3°)] | -55 | -49.5 |  | 
4 | CN[C@H](C)[C@H](OC(=O)C1=C(C)NC(C)=C(C(=O)OC)C1c1cccc([N+](=O)[O-])c1)c1ccccc1 (single isomer, unassigned) [10 (+165,5°)] | -52 | -39.5 |  | 
5 | COC(=O)C1=C(C)NC(C)=C(C(=O)O[C@H](c2ccccc2)[C@H](C)N)C1c1cccc([N+](=O)[O-])c1 (single isomer, unassigned) [16 (+216,4°)] | -59 | -56.5 | -21.5 | 
6 | COC(=O)C1=C(C)NC(C)=C(C(=O)O[C@@H](c2ccccc2)[C@@H](C)N)C1c1cccc([N+](=O)[O-])c1 (single isomer, unassigned) [17 (-104,3°)] | -56 | -47 | -14.5 | 
7 | CCOC(=O)C1=C(C)NC(C)=C(C(=O)O[C@H](c2ccccc2)[C@H](C)N(C)C)C1c1cccc([N+](=O)[O-])c1 (single isomer, unassigned) [Beispiel 1a] |  |  |  | BP (% Änderung vs. Kontrolle), Mittelwert für Meßzeitpunkte: Stunden nach Gabe (1. und 2. Tag) 2h (2h after dosing): -47,5%; BP (% Änderung vs. Kontrolle), Mittelwert für Meßzeitpunkte: Stunden nach Gabe (1. und 2. Tag) 6h (6h after dosing): -44,5%
8 | CCOC(=O)C1=C(C)NC(C)=C(C(=O)O[C@H](c2ccccc2)[C@H](C)N(C)C)C1c1cccc([N+](=O)[O-])c1 (single isomer, unassigned) [Beispiel 1b] |  |  |  | BP (% Änderung vs. Kontrolle), Mittelwert für Meßzeitpunkte: Stunden nach Gabe (1. und 2. Tag) 2h (2h after dosing): -40,0%; BP (% Änderung vs. Kontrolle), Mittelwert für Meßzeitpunkte: Stunden nach Gabe (1. und 2. Tag) 6h (6h after dosing): -30,3%
9 | CCOC(=O)C1=C(C)NC(C)=C(C(=O)O[C@@H](c2ccccc2)[C@@H](C)N(C)C)C1c1cccc([N+](=O)[O-])c1 (single isomer, unassigned) [Beispiel 2b] | -40 | -34.3 |  | 
10 | COC(=O)C1=C(C)NC(C)=C(C(=O)O[C@H](c2ccccc2)[C@H](C)N(C)Cc2ccccc2)C1c1cccc([N+](=O)[O-])c1 (single isomer, unassigned) [Beispiel 11] | -53.5 | -48 |  | 
11 | CCN(C)[C@@H](C)[C@H](OC(=O)C1=C(C)NC(C)=C(C(=O)OC)C1c1cccc([N+](=O)[O-])c1)c1ccccc1 (single isomer, unassigned) [Beispiel 12] | -48.5 | -38 |  | 
12 | COC(=O)C1=C(C)NC(C)=C(C(=O)O[C@H](c2ccccc2)[C@H](C)N(C)CC=Cc2ccccc2)C1c1cccc([N+](=O)[O-])c1 (single isomer, unassigned) [Beispiel 14] | -51.5 | -41.5 |  | 
13 | COC(=O)C1=C(C)NC(C)=C(C(=O)O[C@H](c2ccccc2)[C@@H](C)N(C)Cc2cc(OC)c(OC)c(OC)c2)C1c1cccc([N+](=O)[O-])c1 (single isomer, unassigned) [Beispiel 15] | -62.5 | -56 | -37 | 
14 | COC(=O)C1=C(C)NC(C)=C(C(=O)O[C@H](c2ccccc2)[C@H](C)N(C)Cc2cc([N+](=O)[O-])ccc2OC)C1c1cccc([N+](=O)[O-])c1 (single isomer, unassigned) [Beispiel 19] |  |  |  | change in vivo at 10 µmol/kg [1]: -42%; change in vivo at 10 µmol/kg [2]: -23.5%; change in vivo at 10 µmol/kg [3]: -10.5%

Reference: patent publication EP0336132A1, “1-Phenylpropyl compounds” (Byk Gulden Lomberg Chemische Fabrik GmbH, priority 1988, dated 1989)
